Reference: US11254649B2, “Crystalline fumarate salt of (S)-[3,4-difluoro-2-(2-fluoro-4-iodophenylamino)phenyl] [3-hydroxy-3-(piperidin-2-yl) azetidin-1-yl]-methanone” (Exelixis, Inc., priority 2015, dated 2022)
“Also recorded” adds a separate entry of the source. Where a name gives a salt, the structure may show the parent alone.

How the values were obtained:
Format in all cases: physicochemical
[1] = Water solubility; details: at 25° C.
[2] = Storage stability at 25° C/0% RH and 25° C/90% RH; details: 25° C/0% relative humidity (RH) and 25° C/90% RH
[3] = Intrinsic dissolution rate (USP <1088>); details: for Intrinsic Dissolution Rate: pellet 0.5 cm^2, 0.05M Acetate Buffer pH = 4.5, 37 C., 100 RPM, UV at 278 nm
Description: For each intrinsic dissolution measurement, a pellet was produced from the crystalline Form A or the amorphous form sample using an applied load of approximately 15 kN into a flat disk (surface area=0.5 cm^2). After compaction, each pellet was checked by XRPD to confirm that no polymorphic transformation had occurred during the pelleting process. [table] Batches of Form A and the amorphous form (from freeze-drying) were used to determine the intrinsic dissolution rate of both solid forms. Intrinsic dissolution allows the characterization of different crystal forms by exposing a constant surface area to the dissolution medium.

[4] = Polymorphism screening / solid form stability and conversion; details: for thermodynamic stability / conversion of solid form: polymorphism screening, approximately 3000 crystallization experiments
Experimental: The amorphous form is non-crystalline and hygroscopic. […] In approximately 3000 crystallization experiments performed during polymorphism screenings, no additional polymorphic form was observed. Based on DSC measurements as well as temperature-controlled XRPD, no conversion of the polymorphic form is observable under heating until melting occurs. […] DSC thermograms were recorded using a Mettler-Toledo instrument (DSC820/821e/1; FRS05 sensor). Approximately 2-6 mg of the sample were placed in aluminum pans and sealed with aluminum lids. Lids were automatically pierced prior to heating. Generally, samples under nitrogen were heated at a rate of 10 K/min to a maximum of 250° C.

[5] = Hygroscopicity by dynamic moisture sorption/desorption (DVS); details: 25° C.; for reversible weight gain or loss: between 0% RH and 90% RH; for conversion during dynamic vapor sorption experiments: time scale of standard DVS experiments, 0-90% RH; for hygroscopicity classification: weight increase 0% RH to 90% RH
Experimental: Moisture sorption/desorption data were collected on a DVS-1/DVS-HT/DVS-intrinsic (SMS Surface Measurements Systems) moisture balance system. The sorption/desorption isotherms were measured stepwise in a range of 0% RH (relative humidity) to 90% RH at 25° C. A weight change of <0.002 mg/min was chosen as a criterion to switch to the next level of RH (with a maximum equilibration time of 24 hours, if the weight criterion was not met). The data were corrected for the initial moisture content of the samples; that is, the weight after drying the sample at 0% RH was taken as the zero point. The hygroscopicity of a given substance is characterized by the increase in mass when the RH was raised from 0% RH to 90% RH as given in Table 7. [table]

[6] = listed as crystalline fumarate salt of Compound I

Compound | solubility [1] | change in assay, purity, moisture and dissolution [2] | Intrinsic Dissolution Rate [3] | thermal stability by DSC ([4]; DSC) | thermodynamic stability / conversion of solid form [4] | thermodynamic stability / conversion of solid form [4, 6] | reversible weight gain or loss [5] | conversion during dynamic vapor sorption experiments [5] | hygroscopicity classification [5] | hygroscopicity classification [5, 6] | intrinsic dissolution rate relative to crystalline Form A ([3]; amorphous form vs Form A) | conversion in slurry experiment ([4]; 2-propanol/water 88:12, 20° C.) | thermodynamic stability / conversion of solid form ([4]; listed as The amorphous form) | reversible weight gain or loss ([5]; listed as the amorphous from) | hygroscopicity classification ([5]; listed as The amorphous form) | hygroscopicity classification ([5]; listed as the amorphous from)
O=C(c1ccc(F)c(F)c1Nc1ccc(I)cc1F)N1CC(O)([C@@H]2CCCCN2)C1 [Form A, crystalline fumarate salt of (S)-[3,4-difluoro-2-(2-fluoro-4-iodophenylamino)phenyl] [3-hydroxy-3-(piperidin-2-yl)azetidin-1-yl]-methanone] | 1600 µg/mL | no change | 0.0756 mg*cm−2*min−1 | stable up to the melting point of 239 °C | thermodynamically stable form | thermodynamically stable | 0.1% | no conversion was observed | non-hygroscopic; also recorded: nonhygroscopic | non-hygroscopic | – | – | – | – | – | –
O=C(c1ccc(F)c(F)c1Nc1ccc(I)cc1F)N1CC(O)([C@@H]2CCCCN2)C1 [the amorphous form] | – | – | 2.6996 mg*cm−2*min−1 | – | converts to crystalline Form A | – | – | no conversion was observed | hygroscopic | – | approximately 35 times | converted rapidly into Form A | convert to Form A by heating and by solvent mediated phase transition in water | 12.1% | hygroscopic | hygroscopic
